According to patent US9284297B2, “Halofuginone analogs for inhibition of tRNA synthetases and uses thereof” (President and Fellows of Harvard College, priority 2008, dated 2016):

Legend:
[1] = system: Th17 differentiation of CD4+ CD25− T cells; test: Th17 differentiation of CD4+ CD25− T cells (IL-17+ IFNγ− cells, intracellular cytokine staining); conditions: activated in the presence of TGFβ plus IL-6, intracellular cytokine staining day 4
Experimental: Purified CD4^+ CD25^− T cells were activated in vitro as previously described (Djuretic et al., Nat. Immunol. 8:145, 2007) using 0.3 μg/ml hamster anti-mouse CD3 (clone 145-2C11) (ATCC, Manassas, Va.) and 0.5 μg/ml hamster anti-mouse CD28 (BD Pharmingen, San Jose, Calif.). Activated cell cultures were differentiated using the following combinations of cytokines and antibodies: iTreg—recombinant human TGFβ1 (3 ng/ml—R&D systems, Minneapolis, Minn.), Th17-TGFβ1 (3 ng/ml) plus recombinant mouse IL-6 (30 ng/ml—R&D systems). […] Human IL-2 supernatant (National Cancer Institute) was used in culture at 0.01 U/ml and was added at 48 hours-post activation when T cells were split into tissue culture wells lacking CD3 and CD28 antibodies, with the exception of Th17 cultures that were maintained in the absence of exogenous IL-2. […] All reagents (see below) were added at the time of T cell activation and again at 48 hours post activation unless indicated otherwise.
For detection of intracellular cytokines in murine cells, cultured T or B cells were stimulated with 10 nM PMA (Sigma) and 1 mM ionomycin (Sigma) for 4-5 hours in the presence of 10 mM brefeldin A (Sigma). Stimulated cells were harvested, washed with PBS and fixed with PBS plus 4% paraformaldehyde at room temperature for 20 minutes. Cells were then washed with PBS, permeabilized with PBS supplemented with 1% BSA and 0.5% saponin (Sigma) at room temperature for 10 minutes before cytokine-specific antibodies were added and incubated with cells for an additional 20 minutes at room temperature. […] All stained cells were stored at 4° C. in PBS plus 1% paraformaldehyde prior to FACS analyses.
All cell surface staining was performed in FACS buffer (PBS/2% FBS/0.1% NaN3) and antibodies were incubated with cells on ice for 20-30 minutes. Cells were washed with FACS buffer and fixed with FACS buffer plus 1% paraformaldehyde prior to data acquisition.

[2] = system: CD4+ CD25− T cells (Th1, Th2, iTreg differentiation, proliferation, CD25), CD8+ T cells, B cells; test: T and B cell activation, proliferation and Th1, Th2, iTreg differentiation; assay type: cell-based, murine; conditions: polarizing cytokine conditions; IFNγ, IL-4, Foxp3 expression
Experimental: Cytokines secreted into media supernatant were measured using the mouse Th1/Th2 cytometric bead array (CBA—BD Pharmingen) in accordance with manufacturers instructions.

[3] = system: Human primary dermal fibroblasts; test: Inhibition of cell spreading in a fibroblast model; assay type: cell-based; design: key: “+++” vs. “++” vs. “+” in general denotes ˜4-fold differences in potency; “+++” vs. “++” vs. “+” in general denotes ˜4-fold differences in potency; “+++” vs. “++” vs. “+” in general denotes ˜4-fold differences in potency; “−” denotes no activity at any dose tested, up to 1000× the effective dose of halofuginone; conditions: spreading of cells assessed by light microscopy 28 hours after treatment
Experimental: The ability of halofuginone and analogs thereof to inhibit the spreading of freshly plated primary dermal fibroblasts was examined. Human primary dermal fibroblasts were replated and halofuginone added immediately after replating; spreading of cells was assessed by light microscopy 28 hours after treatment with compound. “+++” vs. “++” vs. “+” in general denotes ˜4-fold differences in potency. “−” denotes no activity at any dose tested, up to 1000× the effective dose of halofuginone.

[4] = system: Differentiation of primary naïve T-cells into Th17 cells; test: Inhibition of Th17 differentiation of primary naïve T-cells by halofuginone analogs; assay type: cell-based, murine; design: key: “+++” vs. “++” vs. “+” in general denotes ˜4-fold differences in potency; “+++” vs. “++” vs. “+” in general denotes ˜4-fold differences in potency; “+++” vs. “++” vs. “+” in general denotes ˜4-fold differences in potency; “−” denotes no activity at any dose tested, up to 1000× the effective dose of halofuginone; conditions: T-cell receptor stimulation+IL-6+TGFb
Experimental: Naïve T-cells were stimulated to differentiate in the presence or absence of 10 nM halofuginone, with 1 mM of the indicated amino acids added to the medium, and stained for Th17 differentiation on day 4. Naïve murine T cells were activated in the presence or absence of TGFβ plus IL-6 as indicated, expanded in for 4 days and restimulated with PMA and ionomycin for intracellular cytokine staining. […] Bars indicate percentage of cells differentiation as Th17 as indicated by IL17 expression.
The effect of different halofuginone and analogs thereof on differentiation of naïve T-cells was assayed as described in legend for FIG. 4 above. Differentiation of primary naïve T-cells into Th17 cells following T-cell receptor stimulation+IL-6+TGFb. “+++” vs. “++” vs. “+” in general denotes ˜4-fold differences in potency. “−” denotes no activity at any dose tested, up to 1000× the effective dose of halofuginone.

[5] = system: translation of luciferase RNA in rabbit reticulocyte lysate; test: Translation of a luciferase RNA reporter in rabbit reticulocyte lysate; assay type: biochemical; design: key to Translational inhibition: “+++” vs. “++” vs. “+” in general denotes ˜4-fold differences in potency; “+++” vs. “++” vs. “+” in general denotes ˜4-fold differences in potency; “+++” vs. “++” vs. “+” in general denotes ˜4-fold differences in potency; “−” denotes no activity at any dose tested, up to 1000× the effective dose of halofuginone; conditions: luciferase RNA reporter
Experimental: To distinguish these possibilities, the effect of halofuginone on protein translation was examined in an in vitro system (rabbit reticulocyte lysate) in which amino acids are already present at levels adequate to support protein synthesis. […] Distinct tRNA synthetases catalyze the charging of individual tRNA species with their cognate amino acid. To determine which tRNA synthetase is inhibited by halofuginone, several amino acid mixtures were added to the in vitro translation system to determine which, if any, could reverse the inhibition of translation by halofuginone (FIG. 3). […] To examine whether proline could specifically rescue the effect of halofuginone in intact cells, the ability of each amino acid to reverse the effect of halofuginone on eIF2alpha phosphorylation in T-cells or to prevent halofuginone inhibition of Th17 differentiation was tested (FIG. 4). […] Inhibition of EPRS with compounds of the current invention can inhibit Th17 differentiation.
Translation in vitro was performed using rabbit reticulocyte lysates and luciferase mRNA as template. Translation was measured as arbitrary units of luciferase activity using a luminometer based luminescence assay. Log scale presentation of background-subtracted data is shown.
Inhibition of translation of luciferase RNA by halofuginone and analogs thereof was measured as described in FIG. 3 above. Results are shown of translation of a luciferase RNA reporter in a rabbit reticulocyte lysate. “+++” vs. “++” vs. “+” in general denotes ˜4-fold differences in potency. “−” denotes no activity at any dose tested, up to 1000× the effective dose of halofuginone.

[6] = system: eIF2α phosphorylation and ATF4 protein levels in CD4+ CD25− T cells; test: Amino acid response (AAR) pathway activation in T cells, western blot; assay type: cell-based, mice; conditions: 4 hours; 10 nM HF or 1 μg/ml tunicamycin
Experimental: CD4+ CD25− T cells purified from wild type of GCN2−/− mice were activated through TCR for 4 hours in the presence of halofuginone (10 nM) or 9 (MAZ1310, 10 nM). Whole cell lysates were analyzed by SDS PAGE/Western blot and antibodies indicated.
Naïve T-cells were treated to stimulate the T-cell receptor (TCR) in the presence or absence of 10 nM halofuginone in the presence of 1 mM added amino acid, and then assayed for eIF2alpha activity phosphorylation by SDS PAGE/Western blot.
HF induced detectable eIF2α phosphorylation at 2.5 nM, and this effect plateaued at 5-10 nM HF (FIG. 7D). […] AAR activation was a general consequence of HF treatment; HF induced eIF2α phosphorylation, not only in T cells activated in Th17-priming conditions, but also in resting naïve T cells and T cells activated in ThN, Th1, Th2, and iTreg polarizing conditions (FIG. 7F). […] Thus, the rapid activation of the AAR pathway by HF could underlie both its selective inhibition of Th17 differentiation and its effects on fibroblasts (Pines and Nagler, Gen. Pharmacol. 30:445, 1998).
To delineate the stress response pathway activated by HF, the effects of amino acid starvation with those of tunicamycin (an inducer of ER stress) or HF treatment during T cell activation were compared.
Whole cell lysates were generated from T cells activated for the indicated times. For STAT3 and Smad2/3 western blots cells were harvested, washed in PBS and lysed in 50 mM Tris, pH 7.4, 0.1% SDS, 1% Triton-X100, 140 mM NaCl, 1 mM EDTA, 1 mM EGTA supplemented with protease inhibitors tablets (Roche, Germany), 1 mM NaF and 1 mM Na3VO4. For eIF2α and ATF4 western blots, cells were harvested as above and lysed in 50 mM Tris, pH 7.4, 2% SDS, 20% glycerol and 2 mM EDTA supplemented with protease and phosphatase inhibitors as above. All lysates were cleared via centrifugation and 15-30 μg of protein was resolved by SDS-PAGE. Protein was transferred to nitrocellulose membranes, blocked and blotted using specific antibodies. Antibodies used for western blot analysis were anti-phospho-Smad2, anti-STAT3 (pY705), anti-STAT3, anti-eIF2α^pS51, anti-eIF2α (all from Cell Signaling Technology, Danvers, Mass.). Anti-ATF4/CREB2 and anti-β-actin were purchased from Santa Cruz Biotechnology (Santa Cruz, Calif.). HRP-conjugated secondary antibodies were all purchased from Sigma, with the exception of HRP-conjugated anti-armenian hamster antibody (Jackson Immunoresearch, West Grove, Pa.).

O=C(CC1NCCCC1O)Cn1cnc2cc(Br)c(Cl)cc2c1=O (single isomer, unassigned) [D-enantiomer of HF] was tested, and the “inhibition of Th17 differentiation / IL-17 expression (in words)” value [1] was “inhibited IL-17 expression more potently than a racemic mixture”.
In the case of O=C(CC1NCCCC1O)Cn1cnc2cc(Br)c(Cl)cc2c1=O (single isomer, unassigned) [L-enantiomer], the “inhibition of Th17 differentiation / IL-17 expression (in words)” value [1] is reported as “completely inactive”.
C[C@@H]1C[C@H](C)C[C@H](C)[C@@H](O)CC(=O)O[C@H]([C@@H]2CCC[C@H]2C(=O)O)C/C=C/C=C(/C#N)[C@H](O)[C@@H](C)C1 [Borrelidin] was tested, and the “inhibition of Th17 differentiation / IL-17 expression (in words)” value [1] was “inhibits Th17 differentiation” and the “effect on Th1, Th2, iTreg differentiation” value [2] was “without affecting Th1, Th2, or Treg differentiation or cell number”.
In the case of O=C(CC1NCCCC1O)Cn1cnc2ccccc2c1=O (stereo not drawn) [Compound 3, febrifugine], the Fibroblast inhibition [3] is reported as “++”, the “Inhibition of Th17 differentiation” value [4] is reported as “++” and the Translational inhibition [5] is reported as “++”.
C[Si](C)(C)C#Cc1cc2ncn(CC(=O)CC3NCCCC3O)c(=O)c2cc1Cl (stereo not drawn) [Compound 5, 6-chloro-3-(3-((2S/R,3R/S)-3-hydroxypiperidin-2-yl)-2-oxopropyl)-7-((trimethylsilyl)ethynyl)quinazolin-4(3H)-one] was tested, and the Fibroblast inhibition [3] was “++”.
C#Cc1cc2ncn(CC(=O)CC3NCCCC3O)c(=O)c2cc1Cl (stereo not drawn) [Compound 7, 6-chloro-7-ethynyl-3-(3-((2S/R,3R/S)-3-hydroxypiperidin-2-yl)-2-oxopropyl)quinazolin-4(3H)-one] was tested, and the Fibroblast inhibition [3] was “+++”, the “Inhibition of Th17 differentiation” value [4] was “+++” and the Translational inhibition [5] was “+++”.
NCCOCCOCCNC(=O)CCCC#Cc1cc2ncn(CC(=O)CC3NCCCC3O)c(=O)c2cc1Cl (stereo not drawn) [Compound 8, N-(2-(2-(2-aminoethoxy)ethoxy)ethyl)-6-(6-chloro-3-(3-((2S/R,3R/S)-3-hydroxypiperidin-2-yl)-2-oxopropyl)-4-oxo-3,4-dihydroquinazolin-7-yl)hex-5-ynamide] was tested, and the Fibroblast inhibition [3] was “+” and the Translational inhibition [5] was “+”.
For COC(=O)CCCCC(=O)N/N=C(/CC1NCCCC1O)Cn1cnc2cc(Br)c(Cl)cc2c1=O (stereo not drawn) [Compound 12, methyl 6-((Z)-2-(1-(7-bromo-6-chloro-4-oxoquinazolin-3(4H)-yl)-3-((2S/R,3R/S)-3-hydroxypiperidin-2-yl)propan-2-ylidene)hydrazinyl)-6-oxohexanoate], the Fibroblast inhibition [3] was “++” and the Translational inhibition [5] was “++”.
With CC(=O)N/N=C(/CC1NCCCC1O)Cn1cnc2cc(Br)c(Cl)cc2c1=O (stereo not drawn) [Compound 14, (Z)—N′-(1-(7-bromo-6-chloro-4-oxoquinazolin-3(4H)-yl)-3-((2S/R,3R/S)-3-hydroxypiperidin-2-yl)propan-2-ylidene)acetohydrazide] the Translational inhibition [5] was “++”.
For CCOP(=O)(OCC)OC1CCCNC1CC(=O)Cn1cnc2cc(Br)c(Cl)cc2c1=O (stereo not drawn) [Compound 16, (2S/R,3R/S)-2-(3-(7-bromo-6-chloro-4-oxoquinazolin-3(4H)-yl)-2-oxopropyl)piperidin-3-yl diethyl phosphate], the Fibroblast inhibition [3] was “−” and the Translational inhibition [5] was “−”.
With N[C@H](CO)Cc1c[nH]c2ccccc12 [L-tryptophanol] the “inhibition of Th17 differentiation / IL-17 expression (in words)” value [1] was “impaired IL-17 production” and the “inhibition of Th17 differentiation / IL-17 expression (in words)” value ([1]; listed as tryptophanol) was “inhibited Th17 differentiation”.
For C#Cc1cc2ncn(CC(=O)CC3NCCCC3O)c(=O)c2cc1Cl (stereo not drawn) [MAZ1320], the “inhibition of Th17 differentiation / IL-17 expression (in words)” value [1] was “selectively inhibit the differentiation of Th17 cells” and the “effect on Th1, Th2, iTreg differentiation” value [2] was “without inhibiting Th1 differentiation”.
With N/N=C(/CC1NCCCC1O)Cn1cnc2cc(Br)c(Cl)cc2c1=O (stereo not drawn) [MAZ1686] the “inhibition of Th17 differentiation / IL-17 expression (in words)” value [1] was “selectively inhibit the differentiation of Th17 cells” and the “effect on Th1, Th2, iTreg differentiation” value [2] was “without inhibiting Th1 differentiation”.
“N-(6-((Z)-2-(1-(7-bromo-6-chloro-4-oxoquinazolin-3(4H)-yl)-3-((2S/R,3R/S)-3-hydroxypiperidin-2-yl)propan-2-ylidene)hydrazinyl)-6-oxohexyl)-6-(5-(2-oxohexahydro-1H-thieno[3,4-d]imidazol-4-yl)pentanamido)hexanamide [Compound 13]” was tested, and the Fibroblast inhibition [3] was “++”, the “Inhibition of Th17 differentiation” value [4] was “++” and the Translational inhibition [5] was “++”.
tunicamycin was tested, and the “inhibition of Th17 differentiation / IL-17 expression (in words)” value [1] was “had little influence on IL-17 expression in T cells”, the “effect on Th1, Th2, iTreg differentiation” value [2] was “preferentially impaired Th1 and Th2 differentiation” and the “stress response pathway: eIF2α phosphorylation, ATF4 expression, Xbp-1 splicing” value [6] was “induced eIF2α phosphorylation and ATF4 expression together with Xbp-1 splicing”.
